From ChEMBL document CHEMBL4715903, “Design, Synthesis, and Biological Evaluation of IRAK4-Targeting PROTACs” (ACS Med Chem Lett, 2021)
pIC50: −log10 of the molar value. Active and inactive are the calls of the source. The calls are words filed in the database; no cut-off is given here.

Assays:
[1] = target: T1, Protein cereblon/Interleukin-1 receptor-associated kinase 4 (Homo sapiens) (UniProt Q9NWZ3+Q96SW2); experiment: Protac activity at CRBN/IRAK4 in human TMD8 cells harboring MYD88 L265P mutant assessed as induction of IRAK4 degradation by measuring reduction in IRAK4 protein level at 1 uM incubated for 24 hrs by Western blot analysis; format: cell-based
T1 sequence (Q96SW2 whole entry, looked up, one chain of several): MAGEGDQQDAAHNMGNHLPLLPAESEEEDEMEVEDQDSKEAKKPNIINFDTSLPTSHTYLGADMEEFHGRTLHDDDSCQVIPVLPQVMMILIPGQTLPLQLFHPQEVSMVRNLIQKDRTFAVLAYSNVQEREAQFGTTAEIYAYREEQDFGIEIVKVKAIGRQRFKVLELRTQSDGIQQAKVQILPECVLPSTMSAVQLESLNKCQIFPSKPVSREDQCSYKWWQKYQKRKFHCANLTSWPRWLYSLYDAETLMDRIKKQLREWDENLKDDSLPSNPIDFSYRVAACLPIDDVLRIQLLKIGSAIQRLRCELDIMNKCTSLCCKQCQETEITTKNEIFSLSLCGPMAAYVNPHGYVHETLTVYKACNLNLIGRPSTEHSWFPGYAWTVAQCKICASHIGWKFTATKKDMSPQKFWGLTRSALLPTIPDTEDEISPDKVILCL

[2] = target: T1, Protein cereblon/Interleukin-1 receptor-associated kinase 4 (Homo sapiens); experiment: Protac activity at CRBN/IRAK4 in human OCILY10 cells harboring MYD88 L265P mutant assessed as induction of IRAK4 degradation by measuring reduction in IRAK4 protein level at 1 uM incubated for 24 hrs by Western blot analysis; format: cell-based
[3] = system: TMD8; experiment: Antiproliferative activity against human TMD8 cells harboring MYD88 L265P mutant assessed as inhibition of cell growth incubated for 72 hrs by CCK-8 assay; format: functional, cell-based; details: TMD8, 72 h
[4] = target: T2, Interleukin-1 receptor-associated kinase 4 (Homo sapiens, UniProt Q9NWZ3); experiment: Inhibition of human full length N-terminal His6-tagged recombinant IRAK4 expressed in baculovirus-infected Sf21 cells by Z'-LYTE assay
T2 sequence (Q9NWZ3 whole entry): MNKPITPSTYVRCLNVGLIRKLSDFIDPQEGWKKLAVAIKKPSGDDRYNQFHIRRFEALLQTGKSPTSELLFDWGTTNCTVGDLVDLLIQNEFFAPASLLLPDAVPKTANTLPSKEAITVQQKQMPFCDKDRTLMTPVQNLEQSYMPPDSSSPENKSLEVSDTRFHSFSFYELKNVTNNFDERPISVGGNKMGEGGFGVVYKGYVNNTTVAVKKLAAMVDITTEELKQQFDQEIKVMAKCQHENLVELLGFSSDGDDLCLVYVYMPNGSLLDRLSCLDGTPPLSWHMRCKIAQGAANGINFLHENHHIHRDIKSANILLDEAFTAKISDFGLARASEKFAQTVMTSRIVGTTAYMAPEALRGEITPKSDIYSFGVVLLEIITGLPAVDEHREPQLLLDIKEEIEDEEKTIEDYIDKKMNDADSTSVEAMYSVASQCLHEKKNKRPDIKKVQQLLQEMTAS

[5] = system: OCI-Ly10; experiment: Antiproliferative activity against human OCILY10 cells harboring MYD88 L265P mutant assessed as inhibition of cell growth incubated for 72 hrs by CCK-8 assay; format: functional, cell-based; details: OCI-Ly10, 72 h
[6] = target: T1, Protein cereblon/Interleukin-1 receptor-associated kinase 4 (Homo sapiens); experiment: Protac activity at CRBN/IRAK4 in human OCILY10 cells assessed as inhibition of NFkappaB p65 phosphorylation at 2.5 to 20 uM incubated for 48 hrs by Western blot analysis; format: cell-based; details: dose 2.5-20 µM
[7] = target: T1, Protein cereblon/Interleukin-1 receptor-associated kinase 4 (Homo sapiens); experiment: Protac activity at CRBN/IRAK4 in human TMD8 cells assessed as inhibition of NF-kappaB p65 phosphorylation by Western blot analysis; format: cell-based; details: dose 0.1-10 µM
[8] = target: T1, Protein cereblon/Interleukin-1 receptor-associated kinase 4 (Homo sapiens); experiment: Protac activity at CRBN/IRAK4 in human OCILY10 cells assessed as inhibition of NF-kappaB p65 phosphorylation by Western blot analysis; format: cell-based; details: dose 0.1-10 µM
[9] = target: T1, Protein cereblon/Interleukin-1 receptor-associated kinase 4 (Homo sapiens); experiment: Protac activity at CRBN/IRAK4 in human TMD8 cells assessed as inhibition of IKKalpha/beta phosphorylation by Western blot analysis; format: cell-based; details: dose 0.1-10 µM
[10] = target: T1, Protein cereblon/Interleukin-1 receptor-associated kinase 4 (Homo sapiens); experiment: Protac activity at CRBN/IRAK4 in human OCILY10 cells assessed as inhibition of IKKalpha/beta phosphorylation by Western blot analysis; format: cell-based; details: dose 0.1-10 µM
[11] = target: T1, Protein cereblon/Interleukin-1 receptor-associated kinase 4 (Homo sapiens); experiment: Protac activity at CRBN/IRAK4 in human TMD8 cells assessed as inhibition of IRAK4 phosphorylation by Western blot analysis; format: cell-based; details: dose 0.1-10 µM
[12] = target: T1, Protein cereblon/Interleukin-1 receptor-associated kinase 4 (Homo sapiens); experiment: Protac activity at CRBN/IRAK4 in human OCILY10 cells assessed as inhibition of IRAK4 phosphorylation by Western blot analysis; format: cell-based; details: dose 0.1-10 µM
[13] = target: T1, Protein cereblon/Interleukin-1 receptor-associated kinase 4 (Homo sapiens); experiment: (§1) Protac activity at CRBN/IRAK4 in human TMD8 cells harboring MYD88 L265P mutant assessed as induction of IRAK4 degradation at 1 uM in presence of IRAK4 inhibitor, Methyl 4-(5-ethoxy-1-methyl-6-(6-(trifluoromethyl)picolinamido)-1H-benzo[d]imidazol-2-yl)-2,2-dimethylbutanoate by Western blot analysis; format: cell-based
[14] = target: T1, Protein cereblon/Interleukin-1 receptor-associated kinase 4 (Homo sapiens); experiment: as §1, with “OCILY10” for “TMD8”; format: cell-based
[15] = target: T1, Protein cereblon/Interleukin-1 receptor-associated kinase 4 (Homo sapiens); experiment: Protac activity at CRBN/IRAK4 in human TMD8 cells harboring MYD88 L265P mutant assessed as induction of IRAK4 degradation at 1 uM in presence of CRBN recruiter, pomalidomide by Western blot analysis; format: cell-based
[16] = target: T1, Protein cereblon/Interleukin-1 receptor-associated kinase 4 (Homo sapiens); experiment: Protac activity at CRBN/IRAK4 in human OCILY10 cells harboring MYD88 L265P mutant assessed as induction of IRAK4 degradation at 1 uM in presence of CRBN recruiter, pomalidomide by Western blot analysis; format: cell-based
[17] = target: T1, Protein cereblon/Interleukin-1 receptor-associated kinase 4 (Homo sapiens); experiment: Protac activity at CRBN/IRAK4 in human TMD8 cells harboring MYD88 L265P mutant assessed as induction of IRAK4 degradation at 1 uM pretreated with proteasome inhibitor, MG132 for 2 hrs followed by compound addition by Western blot analysis; format: cell-based
[18] = target: T1, Protein cereblon/Interleukin-1 receptor-associated kinase 4 (Homo sapiens); experiment: Protac activity at CRBN/IRAK4 in human OCILY10 cells harboring MYD88 L265P mutant assessed as induction of IRAK4 degradation at 1 uM pretreated with proteasome inhibitor, MG132 for 2 hrs followed by compound addition by Western blot analysis; format: cell-based
[19] = target: T1, Protein cereblon/Interleukin-1 receptor-associated kinase 4 (Homo sapiens); experiment: Protac activity at CRBN/IRAK4 in human TMD8 cells harboring MYD88 L265P mutant assessed as induction of IRAK4 degradation by measuring reduction in IRAK4 protein level at 1 uM by Western blot analysis; format: cell-based; details: time 1-24 hrs, TDE = time-dependent effect
[20] = target: T1, Protein cereblon/Interleukin-1 receptor-associated kinase 4 (Homo sapiens); experiment: Protac activity at CRBN/IRAK4 in human OCILY10 cells harboring MYD88 L265P mutant assessed as induction of IRAK4 degradation by measuring reduction in IRAK4 protein level at 1 uM by Western blot analysis; format: cell-based; details: time 1-24 hrs, TDE = time-dependent effect
[21] = target: T1, Protein cereblon/Interleukin-1 receptor-associated kinase 4 (Homo sapiens); experiment: Protac activity at CRBN/IRAK4 in human TMD8 cells harboring MYD88 L265P mutant assessed as induction of IRAK4 degradation by measuring reduction in IRAK4 protein level incubated for 24 hrs by Western blot analysis; format: cell-based; details: dose 0.1-10 µM
[22] = target: T1, Protein cereblon/Interleukin-1 receptor-associated kinase 4 (Homo sapiens); experiment: Protac activity at CRBN/IRAK4 in human OCILY10 cells harboring MYD88 L265P mutant assessed as induction of IRAK4 degradation by measuring reduction in IRAK4 protein level incubated for 24 hrs by Western blot analysis; format: cell-based; details: dose 0.1-10 µM
[23] = system: OCI-LY19; experiment: Antiproliferative activity against human OCILY19 cells harboring wild type MYD88 assessed as inhibition of cell growth incubated for 72 hrs by CCK-8 assay; format: functional, cell-based

Row | Structure (SMILES) | Activity [1] | Activity [2] | pIC50 [3] | pIC50 [5] | other results
1 | CCOc1cc2nc(CCC(C)(C)C(=O)NCCCCCCCNc3cccc4c3C(=O)N(C3CCC(=O)NC3=O)C4=O)n(C)c2cc1NC(=O)c1cccc(C(F)(F)F)n1 (centres undefined) | Active | inactive |  |  | 
2 | CCOc1cc2nc(CCC(C)(C)C(=O)NCCCNc3cccc4c3C(=O)N(C3CCC(=O)NC3=O)C4=O)n(C)c2cc1NC(=O)c1cccc(C(F)(F)F)n1 (centres undefined) | inactive | inactive |  |  | 
3 | CCOc1cc2nc(CCC(C)(C)C(=O)NCCNc3cccc4c3C(=O)N(C3CCC(=O)NC3=O)C4=O)n(C)c2cc1NC(=O)c1cccc(C(F)(F)F)n1 (centres undefined) | inactive | inactive |  |  | 
4 | CCOc1cc2nc(CCC(C)(C)C(=O)OC)n(C)c2cc1NC(=O)c1cccc(C(F)(F)F)n1 |  |  | < 4.30 | < 4.30 | pIC50 [4]: 7.15
5 | CCOc1cc2nc(CCC(C)(C)C(=O)NCCCCCCNc3cccc4c3C(=O)N(C3CCC(=O)NC3=O)C4=O)n(C)c2cc1NC(=O)c1cccc(C(F)(F)F)n1 (centres undefined) | inactive | inactive |  |  | 
6 | CCOc1cc2nc(CCC(C)(C)C(=O)NCCOCCNc3cccc4c3C(=O)N(C3CCC(=O)NC3=O)C4=O)n(C)c2cc1NC(=O)c1cccc(C(F)(F)F)n1 (centres undefined) | inactive | inactive |  |  | 
7 | CCOc1cc2nc(CCC(C)(C)C(=O)NCCCCCNc3cccc4c3C(=O)N(C3CCC(=O)NC3=O)C4=O)n(C)c2cc1NC(=O)c1cccc(C(F)(F)F)n1 (centres undefined) | inactive | inactive |  |  | 
8 | CCOc1cc2nc(CCC(C)(C)C(=O)NCCCCNc3cccc4c3C(=O)N(C3CCC(=O)NC3=O)C4=O)n(C)c2cc1NC(=O)c1cccc(C(F)(F)F)n1 (centres undefined) | inactive | inactive |  |  | 
9 | CCOc1cc2nc(CCC(C)(C)C(=O)NCCOCCOCCNc3cccc4c3C(=O)N(C3CCC(=O)N(C)C3=O)C4=O)n(C)c2cc1NC(=O)c1cccc(C(F)(F)F)n1 (centres undefined) | inactive | inactive | < 4.30 | 4.96 | Activity [6]: inactive
10 | CCOc1cc2nc(CCC(C)(C)C(=O)NCCOCCOCCNc3cccc4c3C(=O)N(C3CCC(=O)NC3=O)C4=O)n(C)c2cc1NC(=O)c1cccc(C(F)(F)F)n1 (centres undefined) | Active | Active | 5.12 | 5.34 | Activity [7]: Dose-dependent effect; Activity [8]: Dose-dependent effect; Activity [9]: Dose-dependent effect; Activity [10]: Dose-dependent effect; Activity [11]: Dose-dependent effect; Activity [12]: Dose-dependent effect; Activity [13]: inactive; Activity [14]: inactive; Activity [15]: inactive; Activity [16]: inactive; Activity [17]: inactive; Activity [18]: inactive; Activity [19]: Tde; Activity [20]: Tde; Activity [21]: Dose-dependent effect; Activity [22]: Dose-dependent effect; Activity [6]: Active; Activity [23]: inactive
